The text below walks through data of patent US6399745B1, “Use of leptin antagonists for treating insulin resistance in type II diabetes” (Aventis Pharma Deutschland GmbH, priority 1996, dated 2002).

The subject of test [1] is isolated rat adipocytes. The test can be described thus: Antagonism of fragment 116-167 to the leptin effect: insulin-stimulated lipogenesis. It counts as cell-based. The procedure:
Adipocytes were prepared from the epididymal fat tissue of male Wistar rats (140-160 g, Hoechst AG breeding station, Kastengrund) by means of digesting with collagenase (Rodbell, 1964, J. Biol. Chem. 239, 375-380), washed twice with KRH (25 mM Hepes free acid, 25 mM Hepes sodium salt, 80 mM NaCl, 1 mM MgSO4, 2 mM CaCl2, 6 mM KCl, 1 mM sodium pyruvate, 0.5% BSA) and once with DMEM (Dulbecco's minimal essential medium), supplemented with 5.5 mM glucose, 20 mM Hepes (pH 7.4), 2% fetal calf serum, 1% BSA, 50 U of penicillin/ml, […], by means of flotation (800×g, 1 min, in small plastic tubes), and finally diluted to a volume of 20 ml of DMEM/g wet weight of the fat tissue (cell titer: approximately 2.5×10^5 cells/ml). […] In order to determine the capacity of the adipocytes to be stimulated by insulin, and their sensitivity to insulin, following the primary culture, the washed adipocytes were incubated at 37° C. for 20 min in the absence or presence of human insulin (0.02-50 nM final concentration), and glucose transport or lipogenesis was then measured. Lipogenesis was measured as the incorporation of D-glucose into toluene-extractable lipids (Moody et al., 1974, Horm. Metab. Res. 6, 12-16). […] The radioactivity of the lipids in the toluene phase was corrected for the radioactivity of an incubation mixture which contained the same quantity of [^3H]glucose but no cells. […]

The test system of test [2] is isolated rat adipocytes. The test can be described thus: Lipogenesis (incorporation of D-glucose into toluene-extractable lipids) in isolated rat adipocytes after primary culture with leptin. It counts as cell-based. As to conditions: for Lipogenesis, stimulation factor for insulin (stimulated/basal): Insulin concentration: 5 nM. Here is the method: Adipocytes were prepared from the epididymal fat tissue of male Wistar rats (140-160 g, Hoechst AG breeding station, Kastengrund) by means of digesting with collagenase (Rodbell, 1964, J. Biol. Chem. 239, 375-380), washed twice with KRH (25 mM Hepes free acid, 25 mM Hepes sodium salt, 80 mM NaCl, 1 mM MgSO4, 2 mM CaCl2, 6 mM KCl, 1 mM sodium pyruvate, 0.5% BSA) and once with DMEM (Dulbecco's minimal essential medium), supplemented with 5.5 mM glucose, 20 mM Hepes (pH 7.4), 2% fetal calf serum, 1% BSA, 50 U of penicillin/ml, […], by means of flotation (800×g, 1 min, in small plastic tubes), and finally diluted to a volume of 20 ml of DMEM/g wet weight of the fat tissue (cell titer: approximately 2.5×10^5 cells/ml). The adipocytes were incubated, at 37° C. for 15-18 h under an atmosphere of 5% CO2 and with gentle shaking, in supplemented (see above) DMEM in the presence of 100 nM phenylisopropyladenosine (4 ml of DMEM to 1 ml of cells, cell titer approximately 5×10^4 cell/ml, in 50 ml sterile polypropylene: tubes) and in the presence or absence of leptin. The adipocytes were subsequently washed three times with cold KRH and adjusted to a cell titer of approximately 3×10^5 cells/ml by adding 0.7 ml of glucose-free KRH to the cell layer which remained after the complete removal of the last washing solution. In order to determine the capacity of the adipocytes to be stimulated by insulin, and their sensitivity to insulin, following the primary culture, the washed adipocytes were incubated at 37° C. for 20 min in the absence or presence of human insulin (0.02-50 nM final concentration), and glucose transport or lipogenesis was then measured. Lipogenesis was measured as the incorporation of D-glucose into toluene-extractable lipids (Moody et al., 1974, Horm. Metab. Res. 6, 12-16). 200 μl of the adipocyte suspension in KRH were incubated in scintillation vials, at 37° C. for 20 min, in 680 μl of KRH which was supplemented with 3.5 mM glucose and 20 μl of insulin solution. Lipogenesis was started by adding 100 μl of D-[3-^3H]glucose (25 μCi/ml KRH). After incubating at 37° C., and gently shaking under an atmosphere of 5% CO2, for 90 min, 10 ml of scintillation fluid (toluene-based) were added and the radioactivity in the toluene phase was determined after shaking vigorously and subsequent phase separation (at least 4 h of incubation). The radioactivity of the lipids in the toluene phase was corrected for the radioactivity of an incubation mixture which contained the same quantity of [^3H]glucose but no cells. Isolated rat adipocytes were incubated for 15 h in primary culture in the presence or absence of increasing concentrations of leptin. The cells were then washed and tested for glucose transport and lipogenesis in the basal and insulin (10 nM)-stimulated states. The stimulation factor for insulin was calculated as the ratio between insulin-stimulated and basal activities. Each value represents the mean from two independent adipocyte cultures with activity being determined two or three times in each case.

The subject of test [3] is insulin receptor and insulin receptor substrate 1 (IRS-1). To be noted: rat 1 fibroblasts overexpressing human insulin receptor; cited from earlier work.
Another test has as its system C2C12 mouse myotubes. As to conditions: cited from earlier work.
The subject of a further test is ob/ob mice. To be noted: injection; cited from earlier work.
In test [4] the test system is isolated rat adipocytes. The test can be described thus: Insulin stimulation of glycogenesis in isolated rat adipocytes under leptin. The class given is cell-based. To be noted: basal values unaffected.

In the case of “Insulin: human insulin used to stimulate adipocytes [reference compound]”, the “Lipogenesis, stimulation factor for insulin (stimulated/basal)” value (from here on “Lipogenesis … (stimulated/basal)”) in the test on isolated rat adipocytes [1] (Insulin only, 5 nM (no leptin, no fragment)) turned out to be 3.9; in the test on isolated rat adipocytes [2] (no leptin), 3.9.
With Leptin, the “insulin-induced phosphorylation of the insulin receptor and of IRS-1” value in test [3] is “decreases”. Besides, the “Lipogenesis … (stimulated/basal)” value in the test on isolated rat adipocytes [1] (Leptin: 10 nM 17.5 h, no fragment, Insulin: 5 nM) stood at 1.5; with isolated rat adipocytes [2] (leptin 0.3 nM 15 h) it was 3.9; with isolated rat adipocytes [2] (leptin 1 nM 15 h) it was 3.2; with isolated rat adipocytes [2] (leptin 3 nM 15 h), 2.15; in the test with isolated rat adipocytes [2] (leptin 10 nM 15 h), 1.5; in the test on isolated rat adipocytes [2] (leptin 30 nM 15 h), 1.15. Besides, the “Lipogenesis … (stimulated/basal)” value with isolated rat adipocytes [2] (leptin 100 nM 15 h) is recorded as 1.05. Also, the glucose transport result in the test on C2C12 mouse myotubes was “stimulated”. Also, the glycogen synthesis result in the test with C2C12 mouse myotubes was “stimulated”. In the test on ob/ob mice, the nutrient intake entry is on record as “reduction in nutrient intake”. For the same substance, the weight entry with ob/ob mice is “decrease in weight”. Besides, in the test with isolated rat adipocytes [2] (leptin, basal values unaffected), the “insulin sensitivity of stimulation of lipogenesis” value is “drastically reduced”. Also, in the test with isolated rat adipocytes [4], the “insulin sensitivity of stimulation of glycogenesis” value is reported as “drastically reduced”.
